From patent US20260317367A1, “SALTS INCLUDING CRYSTALLINE SALTS OF 25-HYDROXY-CHOLEST-5-EN-3-SULFATE AND METHODS FOR PREPARING SAME” (Durect Corporation, priority 2022, published 2026)
Counter-ions that a name gives are not always drawn.

Tests used:
[1] = Dynamic vapor sorption (DVS), hygroscopicity; assay type: physicochemical; details: DVS
Excerpt: Dynamic vapor sorption (DVS) measures the uptake of a vapor (typically water) by a sample when exposed to a changing relative humidity. The loss of water can also be measured as relative humidity is decreased. Hygroscopic materials tend to absorb water more readily than non-hygroscopic. In some cases, hydrates absorb water to create higher-order hydrates (e.g., a monohydrate converting to a dihydrate when exposed to increasingly humid conditions). In some salts of the disclosure, moisture is retained upon exposure in a DVS experiment and little or no weight loss is observed upon heating from room temperature. In such experiments, the hygroscopic nature of the salt under study may indicate the formation of a hydrate from an anhydrate. […] Exemplary methods for collecting DVS data are set forth in Example 26.
Dynamic vapor sorption data was collected on a Surface Measurement System DVS Intrinsic instrument. The samples were not dried prior to analysis. Sorption and desorption data were collected over a range from 5% to 95% RH in 10% RH increments under a nitrogen purge. The equilibrium criteria used for the analyses were 0.001 dm/dt weight change in 5 minutes with a minimum step time of 30 minutes and maximum equilibration time of 180 minutes with a 3 minute data logging interval. Data were not corrected for the initial moisture content of the sample.

[2] = Humidity / water activity stability of crystalline 25HC3S sodium forms; assay type: physicochemical
lipid biosynthesis = details: shown previously; cited from earlier work
[3] = test system: cholesterol secretion and degradation; details: shown previously; cited from earlier work

CC(CCCC(C)(C)O)C1CCC2C3CC=C4CC(OS(=O)(=O)O)CCC4(C)C3CCC12C (centres unmarked) [Form I, reference compound]
Hygroscopicity (in words) [1]: hygroscopic
Water activity above which a liquid crystal may form ([2]; high water activities): above 0.73

C[C@H](CCCC(C)(C)O)[C@H]1CCC2C3CC=C4C[C@@H](OS(=O)(=O)O)CC[C@]4(C)C3CC[C@@]21C (stereo partly drawn) [Salt 25HC3S, [(3S,10R,13R,17R)-17-[(1R)-5-hydroxy-1,5-dimethyl-hexyl]-10,13-dimethyl-2,3,4,7,8,9,11,12,14,15,16,17-dodecahydro-1H-cyclopenta[a]phenanthren-3-yl]sulfate]
Effect on lipid biosynthesis (lipid biosynthesis): decreases
Effect on cholesterol secretion and degradation [3]: increases

C[C@H](CCCC(C)(C)O)[C@H]1CC[C@H]2[C@@H]3CC=C4C[C@@H](OS(=O)(=O)[O-])CC[C@]4(C)[C@H]3CC[C@]12C.[Na+] [crystalline 25HC3S sodium, Sodium [(3S,10R,13R,17R)-17-[(1R)-5-hydroxy-1,5-dimethyl-hexyl]-10,13-dimethyl-2,3,4,7,8,9,11,12,14,15,16,17-dodecahydro-1H-cyclopenta[a]phenanthren-3-yl]sulfate]
Behaviour under humid conditions (in words) ([2]; humid conditions): stabilizes as a hydrate
